Measured values as given in US20250387406A1, “THERAPY FOR REDUCED OTOTOXICITY FROM CHEMOTHERAPEUTIC AGENT WITH PENTAAZA MACROCYCLIC RING COMPLEX” (GALERA LABS, LLC, priority 2022, published 2025).

Assays:
hamster = hamster oral mucositis, Murphy et al. 2008; cited from earlier work
rat [1] = details: Salvemini et al. 2001; cited from earlier work
rat [2] = details: Salvemini et al. 1999; cited from earlier work
adult mice = details: lethal total body irradiation, Thompson et al. 2010; cited from earlier work
[3] = system: rats subjected to an experimental model of colitis; details: rat colitis model, Cuzzocrea et al. 2001; cited from earlier work
H1299 (wild type) cells [4] = assay: Hydrogen peroxide, PO-1 probe, H1299; format: cell-based, human
[5] = system: PARP (poly (ADP ribosyl) polymerase); assay: PARP activation in H460 cells (Western blot, 89 kd active/116 kd inactive form); format: cell-based, human
Excerpt: PARP is a nuclear enzyme involved in DNA repair of single strand breaks and is activated following cell stress including chemotherapy and irradiation.

[6] = system: H1299 human NSCLC cells, modified to inducibly overexpress catalase (H1299CAT); assay: Survival of H1299CAT cells with GC4419, cisplatin and catalase overexpression; format: cell-based; design: dose or concentration left out as unconfirmed; details: GC4419 added to cisplatin, 120 hours
Excerpt: CAT overexpression in this line (H1299CAT) was induced by administration of doxycycline, which turned on transcription of the inserted catalase genes.

H1299 (wild type) cells [7] = assay: Mitochondrial superoxide, MitoSOX probe, flow cytometer, H1299; format: cell-based, human
head and neck patients = details: concurrent chemoradiotherapy; cited from earlier work
H1299 (wild type) cells [8] = assay: Total reactive oxygen species, CellROX probe, flow cytometer, H1299; format: cell-based, human
Experimental: (§1) After the treatments and incubations CellROX fluorogenic probes for total ROS were added for 30 minutes continued incubation and the CellROX signal was measured using a flow cytometer.

Male C57BL/6J mice = assay: Cisplatin-induced acute kidney injury (AKI) model in mice; format: in vivo, mouse
Excerpt: 4 month old male C57BL/6J mice (young) were purchased from Jackson Laboratories and 18 month old mice (old) were obtained as collaboration with Dr. Amy Sindler (University of Iowa) from the National institute of Aging. All mice were maintained in accordance with ACURF approval #4121235 at the University of Iowa Animal Care facility. Mice were maintained on normal diets and water ad libitum through the course of the experiment.
Animals were weighed every other day following the start of treatment with GC4419.

H460 cells [9] = assay: Hydrogen peroxide, PO-1 probe, H460; format: cell-based, human
[10] = system: hair cells in mouse cochlea cultures; assay: Mouse cochlea cultures with paclitaxel, hair cell number; format: cell-based; details: 2 μM GC4419 for 48 or 72 hours (24 hour pre-treatment) with paclitaxel 0.1 μM and 1 μM
Experimental: Pups from C57BL/B16 pregnant female mice were decapitated on postnatal day 3. The stria vascularis and spiral ligament were removed, and the cochlea dissected out. The cochlea was placed in 400 ul of DMEM 5% FBS on a collagen pre-prepared culture dish and incubated at 4% O2, 37° C. in 5% CO2 for 24 hours. The medium was then exchanged with new medium that contained paclitaxel 0, 100 nM, and 1 μM, with and without 2 μM GC4419 for 48 hours, or pretreated for 24 hours with 2 μM GC4419 followed by paclitaxel treatment. The explants were then fixed for 1 hour in 4% paraformaldehyde. Specimens were stained with anti-myosin-VIIa antibody. Specimens were mounted and examined under a fluorescence microscope and hair cells counted using the image analysis software Imaris.

H460 cells [11] = assay: Mitochondrial superoxide, MitoSOX probe, flow cytometer, H460; format: cell-based, human
[12] = system: athymic female Nu/Nu (nude) mice; assay: Cisplatin-induced hematotoxicity in SQ20B tumor-bearing nude mice; format: in vivo, mouse
Experimental: 7 week old athymic female Nu/Nu (nude) mice were implanted in a hind leg with SQ20B human head and neck squamous cell carcinoma cells. […] Mice were assessed for blood counts by tail vein blood collection either 2 days or 2 weeks after the treatment period.

rat [13] = details: rat model, Tuder et al. 2003; cited from earlier work
[14] = system: PARP (poly (ADP ribosyl) polymerase); assay: PARP activation in H1299CAT cells with doxycycline induction of CAT overexpression; format: cell-based, human; details: CAT induced with doxycycline
Excerpt: When treated with doxcycline, H1299CAT cells express greater levels of human catalase (CAT) than the “parent” cells, H1299 (wild type), eliminating all or part of the H2O2 generated from superoxide by GC4419 or other Mn pentaaza macrocyclic dismutase mimetics.

H460 cells [15] = assay: Total reactive oxygen species, CellROX probe, flow cytometer, H460; format: cell-based, human
Experimental: as §1

[16] = system: H460 human non-small cell lung carcinoma (NSCLC) cells; assay: Survival of H460 cells in culture with GC4419 and cisplatin; format: cell-based; design: dose or concentration left out as unconfirmed; details: GC4419 added to indicated concentrations of cisplatin, 120 hrs, vs cisplatin alone
Experimental: After 120 hrs the surviving fraction of cells was determined.

[17] = system: hair cells in mouse cochlea cultures; assay: Cochlear organotypic cultures with cisplatin, hair cell number; format: cell-based
Experimental: Cochlear organotypic cultures. C57BL/10J mice were decapitated on postnatal day 2 or 3. The stria vascularis and spiral ligament was removed and the organ of Corti and spiral ganglion neurons from the middle turn of the cochlea dissected out. The middle turn of the cochlea was placed in a collagen matrix and 1 ml of serum-free BME plus serum free supplement, 1% bovine serum albumin, 2 mM glutamine, 5 mg/ml glucose, and 10 U/ml penicillin on a collagen pre-prepared culture dish. The cochlear explants were incubated at 4% O2, 37° C. in 5% CO2 for 2 h. […] After 24 hours the cultures were fixed for 4 h in 4% paraformaldehyde as previously described (see, e.g., McFadden et al., Toxicol Appl Pharmacol. 2003; 186(1):46-54) and immersed in rhodamine-labeled phalloidin in PBS for 30 min. […] Tissues were examined histologically for inner and outer hair cell organization and number as previously described. Dihydroethidium (DHE) was used to measure oxidative stress. […] The cochlear specimens were incubated with 1 μm DHE for 30 min at 37° C. and then fluorescent images obtained with a confocal laser microscope as previously described (see, e.g., Fetoni et al., The Journal of neuroscience: the official journal of the Society for Neuroscience. 2013; 33(9):4011-23).

[18] = system: PARP (poly (ADP ribosyl) polymerase); assay: PARP activation in H1299 (wild type) cells (Western blot); format: cell-based, human
CBA/CaJ mice = assay: In vivo multicycle mouse model of cisplatin toxicity; details: 10 mg/kg GC4419 1 hour prior to 3.0 mg/kg cisplatin IP
[19] = system: head-and-neck cancer patients; details: patients undergoing chemoradiation therapy, Anderson 2015; cited from earlier work
patients = details: human, in vivo; cited from earlier work
[20] = system: hair cells of the cochlea; details: cited from earlier work
[21] = H1299, GC4419 added to cisplatin or cisplatin plus IR
[22] = 10 mg/kg GC4419 daily + cisplatin
[23] = 10 mg/kg GC4419 daily from 4 days prior to 10 mg/kg cisplatin until euthanasia
[24] = H460, GC4419 added to cisplatin or cisplatin plus IR
[25] = 10 mg/kg GC4419 + cisplatin + IR
[26] = 10 mg/kg GC4419 + cisplatin + IR, 2 days and 2 weeks after end of treatment
[27] = H1299, cisplatin or cisplatin plus IR
[28] = H460, cisplatin or cisplatin plus IR

Compound: [Cl-].[Cl-].[Mn+2].c1cc2nc(c1)CN[C@@H]1CCCC[C@H]1NCCN[C@@H]1CCCC[C@H]1NC2 [GC4403]
- radiation damage (hamster): attenuate the radiation damage
- joint disease (rat [1]): prevent joint disease
- inflammation (rat [2]): inhibit inflammation
- radiation damage (adult mice): attenuate the radiation damage
- injury to the colon [3]: very significantly reduce the injury to the colon

Compound: [Cl][Mn][Cl].c1cc2nc(c1)CN[C@H]1CCCC[C@@H]1NCCN[C@H]1CCCC[C@@H]1NC2 [GC4419]
- H2O2 (PO-1 probe) (H1299 (wild type) cells [4]; [21]): significantly further increases the increase in H2O2
- basal levels of H2O2 (PO-1 probe) (H1299 (wild type) cells [4]; H1299, GC4419 alone): significantly increases both the basal levels of H2O2
- PARP activity (ratio 89 kd active to 116 kd inactive form) ([5]; 24 μM GC4419 added to 6 Gy IR + 1 μM cisplatin, 24 hr): significantly increased (p<0.01)
- PARP activity (ratio 89 kd active to 116 kd inactive form) ([5]; 24 μM GC4419 added to 6 Gy IR, 24 hr, vs radiation alone): significantly increased PARP activity
- PARP activity (ratio 89 kd active to 116 kd inactive form) ([5]; 24 M GC4419 added to 1 M cisplatin, 24 hours, vs cisplatin): further and significantly (p<0.01) increased PARP activity
- surviving fraction of cells ([6]; with CAT overexpression (doxycycline)): abrogated the GC4419 contribution to cisplatin response
- surviving fraction of cells ([6]; without CAT overexpression (wt), vs cisplatin alone): decreased the surviving fraction
- mitochondrial superoxide (MitoSOX signal) (H1299 (wild type) cells [7]; [21]): significantly reduced the increase in mitochondrial superoxide
- basal levels of mitochondrial superoxide (MitoSOX signal) (H1299 (wild type) cells [7]; H1299, GC4419 alone): significantly reduced the basal levels of mitochondrial superoxide
- incidence of chronic kidney disease (head and neck patients): significantly decrease the incidence of chronic kidney disease
- total ROS (CellROX signal) (H1299 (wild type) cells [8]; H1299, 24 M GC4419 used alone): little effect on total ROS
- total ROS (CellROX signal) (H1299 (wild type) cells [8]; H1299, GC4419 added to cisplatin therapy): synergistic effect on total ROS
- kidney injury molecule 1 (KIM1) biomarker (Male C57BL/6J mice; [22]): prevented that injury
- neutrophil gelatinase-associated lipocalin (NGAL) biomarker (Male C57BL/6J mice; [22]): prevented that injury
- survival (Male C57BL/6J mice; 10 mg/kg GC4419 daily + cisplatin, old mice): prevented cisplatin mortality
- weight loss (Male C57BL/6J mice; 10 mg/kg GC4419 daily + cisplatin, young and old mice): reduced the amount of weight loss
- creatinine level (Male C57BL/6J mice; [23]): completely prevented these increases in BUN and creatinine
- whole blood urea nitrogen (BUN) level (Male C57BL/6J mice; [23]): completely prevented these increases in BUN and creatinine
- H2O2 (PO-1 probe) (H460 cells [9]; [24]): significantly further increases the increase in H2O2
- basal levels of H2O2 (PO-1 probe) (H460 cells [9]; H460, GC4419 alone): significantly increases both the basal levels of H2O2
- number of hair cells (FIG. 15) [10]: protective effect of GC4419 on the hair cells
- mitochondrial superoxide (MitoSOX signal) (H460 cells [11]; [24]): significantly reduced the increase in mitochondrial superoxide
- basal levels of mitochondrial superoxide (MitoSOX signal) (H460 cells [11]; H460, GC4419 alone): significantly reduced the basal levels of mitochondrial superoxide
- eosinophil percentage [12, 25]: maintained eosinophil percentage at apparently normal levels
- neutrophil percentage [12, 25]: maintained neutrophil percentage at apparently normal levels
- leukocyte (WBC) count [12, 26]: stimulated leukocyte (WBC)
- lymphocyte subset [12, 26]: proportionally lymphocyte subset production
- platelets ([12]; 10 mg/kg GC4419 every day + cisplatin + IR, two days after end of treatments): significantly restored platelet levels
- VEGFr inhibitor-induced pulmonary disease (rat [13]): attenuate VEGFr inhibitor-induced pulmonary disease
- PARP activation response to cisplatin ([14]; 24 M GC4419 + 1 M cisplatin, 24 hours (p<0.01, FIG. 6B)): significantly (p<0.05) reduced the PARP activation response
- PARP activation response to IR+cisplatin ([14]; 24 M GC4419 + 6 Gy IR + 1 M cisplatin, 24 hours (p<0.001, FIG. 6C)): significantly (p<0.05) reduced the PARP activation response
- PARP activation response to IR ([14]; 24 M GC4419 + 6 Gy IR, 24 hours (p<0.05, FIG. 6C)): significantly (p<0.05) reduced the PARP activation response
- total ROS (CellROX signal) (H460 cells [15]; H460, 24 M GC4419 used alone): little effect on total ROS
- total ROS (CellROX signal) (H460 cells [15]; H460, GC4419 added to cisplatin therapy): synergistic effect on total ROS
- surviving fraction of cells [16]: decreased the surviving fraction
- number of hair cells (FIG. 12A) ([17]; GC4419 0.5, 2 or 4 μM with cisplatin, 24 h): dose-dependent protection against hair cell damage
- hair cell damage, microscopy images (FIG. 12B) ([17]; GC4419 with cisplatin): reduced damage to the hair cells caused by cisplatin and preserved the number of hair cells
- PARP activity (ratio 89 kd active to 116 kd inactive form) ([18]; 24 μM GC4419 added to 10 μM cisplatin, 24 hr, vs cisplatin): further and significantly p<0.01) increased PARP activity
- PARP activity (ratio 89 kd active to 116 kd inactive form) ([18]; 24 M GC4419 added to 6 Gy IR + 1 M cisplatin, 24 hours): significantly increased (p<0.0.05)
- PARP activity (ratio 89 kd active to 116 kd inactive form) ([18]; 24 M GC4419 added to 6 Gy IR, 24 hours, vs radiation alone): significantly increased PARP activity
- weight loss (FIG. 14) (CBA/CaJ mice): reduced the amount of weight loss caused by cisplatin
- oral mucositis [19]: reduce oral mucositis

Compound: N.N.[Cl][Pt][Cl] [cisplatin, reference compound]
- H2O2 (PO-1 probe) (H1299 (wild type) cells [4]; [27]): increase in H2O2
- mean cHL (patients): 36 dB
- mitochondrial superoxide (MitoSOX signal) (H1299 (wild type) cells [7]; [27]): increase in mitochondrial superoxide
- total ROS (CellROX signal) (H1299 (wild type) cells [8]; H1299, 1 M cisplatin or cisplatin plus 6 Gy IR): increased total ROS
- H2O2 (PO-1 probe) (H460 cells [9]; [28]): increase in H2O2
- mitochondrial superoxide (MitoSOX signal) (H460 cells [11]; [28]): increase in mitochondrial superoxide
- damage to inner hair cells (IHCs) [20]: sparing of inner hair cells (IHCs)
- damage to outer hair cells (OHCs) [20]: profoundly damages outer hair cells (OHCs)
- total ROS (CellROX signal) (H460 cells [15]; H460, 1 M cisplatin or cisplatin plus 6 Gy IR): increased total ROS
